Data from publication PMC9823006 (Nature Communications, 2023).
Values joined by “and” are separate entries in the source; they are usually repeats but may differ in a detail not shown here. Identical values can stand only once. Like-named read-outs stand apart in the source and are kept apart here. One block for each molecule: values may come before it.

Key:
KalbSec14 [1] = biological target: T1, KalbSec14 (Rattus norvegicus, UniProt P97924, N62Y/T46S); experiment: Isothermal titration calorimetry (preliminary); assay type: binding; details: data not shown; authors' response in peer review file; read-out: estimated KD from preliminary ITC data
T1 construct: His6 (TEV-cleavable) (N, cleaved yes); made in house; host or cells: E. coli BL21(DE3)

KalbSec14 [2] = biological target: T1, KalbSec14; experiment: NMR chemical shift perturbation (CSP) titration, 1H-15N HSQC; assay type: binding
Procedure: (§1) ^1H-^15N HSQC spectra of the uniformly ^15N-labeled Kal^bSec14 and Kal^Sec14 were recorded at 25 °C on an Agilent VNMRS 800 MHz (^1H) spectrometer equipped with a cryogenic probe. ^1H-^15N HSQC spectra of the uniformly ^15N-labeled Kal^bSec14 mutants were recorded using the TopSpin software (https://www.bruker.com/en/products-and-solutions/mr/nmr-software/topspin.html) at 25 °C on a Bruker Avance NEO 600 MHz spectrometer equipped with a cryogenic probe. All detergents and lipids used in this study were purchased from Cube Biotech Inc. (Wayne, Pennsylvania) and Avanti Polar Lipids, Inc. (Alabaster, Alabama), respectively; details are listed in Supplementary Table 2. After collecting an initial protein-only spectrum with a starting protein concentration of 0.4 mM, each detergent or lipid was dissolved in the same NMR buffer and gradually added to the protein until no further CSP was observed. Each series usually comprised 8-12 titration points, with ligand concentrations ranging from 0 to 8 mM and final protein:ligand ratios from 1:7 to 1:25 (the protein concentration in each mixture during titration was confirmed by UV-vis absorbance at 280 nm). The HSQC spectrum was recorded for each titration point using the same instrument setup as that of the apo protein. All spectra were processed with NMRPipe[59], and peak heights and locations were analyzed in CcpNmr Analysis[60].
(§2) For each titration series, observed CSPs for a single amino acid residue were calculated using the combined shift change (Δδ) of the backbone amide nitrogen and proton based on the equation △δ(ppm)=[△δH2+(α⋅△δN)^2] , where ΔδH and ΔδN are the ^1H and ^15N chemical shift differences between the free and bound states, respectively, and α denotes the chemical shift scaling factor for ^15N[63].
(§3) In each titration series, the peaks for all residues were ranked based on the CSP observed upon titration at the highest ligand concentration. […] The well-resolved and non-overlapped CSPs, usually including most of the 2σ CSPs and some of the 1σ CSPs, were then plotted as a function of the ligand concentration and the dissociation constant (KD) was extracted by nonlinear least-square fitting of the following equation: △δobs=△δmax(KD+[L]t+[P]t)−(KD+[L]t+[P]t)^2−4[L]t[P]t/2[P]t , where [P]t and [L]t are the total protein and ligand concentrations, respectively, and △δmax is the chemical shift difference at saturation. The bound fraction plotted as the y-axis in the Figures was defined as △δobs/△δmax based on the average of the normalized CSPs from all the selected peaks. Titration data for each residue and each peak used for KD calculations are provided in the Source Data file.

Kal^Sec14 [3] = biological target: T2, Kal^Sec14 (Rattus norvegicus, UniProt P97924, N62Y/T46S); experiment: as above; assay type: binding
T2 construct: 19.4 kDa); His6 (TEV-cleavable) (N, cleaved yes); made in house; host or cells: E. coli BL21(DE3)
Procedure: as §1, §2, §3

α-TTP = biological target: α-TTP; set-up: method as in earlier work; details: quoted by reviewer as specific binding; ref 1 Panagabko, C. et al. Biochemistry 42, 6467–74 (2003); cited from earlier work
KalbSec14 [4] = biological target: T1, KalbSec14; experiment: Liposome flotation binding assay (Accudenz gradient, Western blot)
Procedure: Unilamellar liposomes formed by mixing synthetic dioleoyl phospholipids and cholesterol in proportions mimicking the membranes of the trans-Golgi network (Golgi-mixture) were incubated with Kal^bSec14. An Accudenz gradient was used to separate liposome-bound proteins, which were recovered from the top of the gradient (fraction 1), from unbound proteins, which remained at the bottom (fraction 4). Protein levels in each fraction were analyzed by Western blotting with an antibody to the Sec14 domain of Kalirin.
(§4) The synthetic and natural lipids used in flotation assays were purchased from Avanti Polar Lipids, Inc. (Supplementary Table 2). All powdered lipids were dissolved in chloroform per the manufacturer’s instructions. Liposomes were prepared as previously described. […] Individual test lipids were dried together with the control lipid mix under a nitrogen stream and lyophilized overnight. Each dried lipid film was reconstituted to a final concentration of 1 mM in HN buffer containing 20 mM HEPES (pH 7.4) and 150 mM NaCl. Each final lipid mixtures consisted of 52% DOPC, 20% DOPE, 5% DOPS, 15% cholesterol and 8% tested lipid; inclusion of a trace amount of fluorescent lipid (Liss Rhod PE) allowed for localization of liposomes following gradient fractionation (see below). Each lipid mixture underwent five freeze-thaw cycles separated by vigorous vortexing each time it was thawed. Using a mini-extruder, unilamellar liposomes were prepared by passing each lipid mixture 21 times through a polycarbonate membrane of 100-nm pore size. Hydrated lipid mixtures were stored at −20 °C for up to 1 month; liposomes were freshly prepared for each experiment.
(§5) Flotation assays were conducted following the protocol previously described. Accudenz (Accurate Chemical and Scientific Corp., Westbury, NY) solutions (80 and 20% weight/vol) were prepared in HN buffer. To remove any particulate material, the protein to be tested was first centrifuged at 436,000 g at 4 °C for 15 min in a TL-100 ultracentrifuge using a Beckman TLA100.2 fixed angle rotor. Freshly prepared unilamellar liposomes (50 μl) were combined with 0.2 μg of the centrifuged protein and incubated at room temperature for 30 min. The entire liposome/protein mixture was then combined with 50 μl of 80% Accudenz at the bottom of an ultracentrifuge tube and carefully mixed to completion by pipetting. The resulting mixture was overlayered with […] of 20% Accudenz and then with 50 μl of HN buffer. Samples were centrifuged at 259,000 g at 4 °C for 30 min in the same ultracentrifuge using a Beckman TLS55 swinging bucket rotor. Gradients were then divided into four 100-μl fractions, which were carefully collected from the bottom of the tube using gel loading micropipette tips. Each fraction was analyzed for liposome and protein content using spectrophotometry (546-nm excitation/571-nm emission) and Western blot, respectively. Only those assays with at least 90% of the Liss Rhod PE marker recovered in the top fraction (fraction 1) were used for Western bloting analysis.
(§6) For Western bloting analysis, equal aliquots of each gradient fraction were denatured in 1× Laemmli sample buffer, fractionated on 15% acrylamide gels, and transferred to PVDF membranes. The protein content was detected using a custom-made rabbit antibody to the Sec14 domain of Kalirin (CT302[69], 1:3000) and an HRP-tagged goat anti-rabbit IgG (H + L) secondary antibody (catalog # 31460, 1:6000; ThermoFisher Scientific). SuperSignal West chemiluminescent substrate (Thermo Scientific) and a Syngene PXi digital imaging system (Synoptics Group) were used to visualize blots, with exposures adjusted to be in the linear range.

Kal^cSec14 = details: previous studies; cited from earlier work
Kal^Sec14 [5] = biological target: T2, Kal^Sec14; experiment: Liposome flotation binding assay (Accudenz gradient, Western blot); details: Suppl. Fig. 9b,c
Procedure: as §4, §5
as §6, with “range. After background subtraction, bands were quantified using the GeneSys software provided with the imaging system, and data were represented as a proportion of total protein recovered. Uncropped blots, quantification of each data point and exact P-values are provided in the Source Data file. […]” for “range.”
a. Representative Western blots from flotation assays with Kal Sec14 alone (Control), and Kal Sec14 with the control lipid mix (Lipo) or with the lipid mix containing the indicated additional lipid. After binding and separation of liposome bound Kal Sec14 from unbound Kal Sec14 on Accudenz gradients, the protein content of four gradient fractions was dete rmined by immunoblot; liposomes were recovered from the top fraction (fraction 1). Source data are […]

[6] = NMR titration, two-state binding model, mean ± S.D. of CSP data for individual residues, 25 °C, read-out: KD
[7] = source data of the global fitting, S.D. in the next column, read-out: KD, Ave of residue peaks
[8] = construct without Ex1B front peptide, NMR titration, mean ± S.D. over residues, 25 °C, read-out: KD
[9] = mean of independent experiments, normalized to total protein recovered, test lipid 8% of liposome lipid
[10] = average, biological replication ≥ 3
[11] = individual experiments (Exp. 1-4)

Kd (KalbSec14 [1]): ~500 µM
Kd (KalbSec14 [2]; [6]): 245 ± 36 µM
Kd (KalbSec14 [2]; [7]): 245 µM
Kd (KalbSec14 [2]; source data of the global fitting, peaks numbered, residues not named, read-out: KD fitted for individual residue peaks): 198 µM and 290 µM and 295 µM and 203 µM and 213 µM and 217 µM and 232 µM and 242 µM and 245 µM and 277 µM and 286 µM
Kd (Kal^Sec14 [3]; [8]): 514 ± 66 µM
Kd (Kal^Sec14 [3]; read-out: KD of FC12 binding to KalSec14, Ave, average over residue peaks 1-20): 514 µM
Molecule: CCCCCCCCCCCCOP(=O)([O-])OCC[N+](C)(C)C [FC12, dodecylphosphocholine]
Kd (Kal^Sec14 [3]; read-out: KD of FC12 binding to KalSec14, fit of individual residue peak, residue peaks 1-20, ligand concentrations given in mM): 498 µM and 470 µM and 575 µM and 487 µM (2×) and 514 µM and 590 µM and 540 µM and 542 µM and 537 µM and 496 µM (2×) and 477 µM and 505 µM and 512 µM and 511 µM and 332 µM and 481 µM and 555 µM and 685 µM

Kd (KalbSec14 [1]): ~30 µM
Kd (KalbSec14 [2]; [6]): 17.1 ± 4.9 µM
Kd (KalbSec14 [2]; [7]): 17.1 µM
Kd (Kal^Sec14 [3]; [8]): 35.6 ± 7.2 µM
Kd (Kal^Sec14 [3]; read-out: KD of FC14 binding to KalSec14, Ave, average over residue peaks 1-24): 35.6 µM
Molecule: CCCCCCCCCCCCCCOP(=O)([O-])OCC[N+](C)(C)C [FC14, tetradecylphosphocholine]
Kd (Kal^Sec14 [3]; read-out: KD of FC14 binding to KalSec14, fit of individual residue peak, residue peaks 1-24, ligand concentrations given in mM): 47.7 µM and 39.3 µM (2×) and 55.2 µM and 45.5 µM and 35.6 µM (3×) and 25.3 µM and 26.6 µM and 37.4 µM (4×) and 32.3 µM (3×) and 33.9 µM (3×) and 27.9 µM (2×) and 41.2 µM and 24.1 µM

Molecule: Cc1c(C)c2c(c(C)c1O)CC[C@@](C)(CCC[C@H](C)CCC[C@H](C)CCCC(C)C)O2 [α-tocopherol]
Kd (α-TTP): 0.025 µM

binding of Kal^bSec14 to liposomes containing the lipid (KalbSec14 [4]; Golgi-mixture liposomes with 8% test lipid, result in words): does not interact
Fraction 1 protein content (top fraction, liposome-bound), densitometry, Ave. (KalbSec14 [4]; [9]): 0.0251
Fraction 2 protein content, densitometry, Ave. (KalbSec14 [4]; [9]): 0.0079
Fraction 3 protein content, densitometry, Ave. (KalbSec14 [4]; [9]): 0.11
Fraction 4 protein content (bottom fraction, unbound), densitometry, Ave. (KalbSec14 [4]; [9]): 0.86
Fraction 4 protein content (bottom fraction, unbound), densitometry (KalbSec14 [4]; single experiments, normalized to total protein recovered, test lipid 8% of liposome lipid): 0.87 and 0.90 and 0.84 and 0.91 and 0.78
Densitometry values for the Western blots, Fraction 1, Ave. (Kal^Sec14 [5]; [10]): 0.06
Densitometry values for the Western blots, Fraction 2, Ave. (Kal^Sec14 [5]; [10]): 0.02
Densitometry values for the Western blots, Fraction 3, Ave. (Kal^Sec14 [5]; [10]): 0.13
Densitometry values for the Western blots, Fraction 4, Ave. (Kal^Sec14 [5]; [10]): 0.79
Densitometry values for the Western blots, Fraction 1 (Kal^Sec14 [5]; [11]): 0.08 and 0.06 and 0.0331
Densitometry values for the Western blots, Fraction 2 (Kal^Sec14 [5]; [11]): 0.00889 and 0.05 and 0.0021
Densitometry values for the Western blots, Fraction 3 (Kal^Sec14 [5]; [11]): 0.04 and 0.22 and 0.13
Densitometry values for the Western blots, Fraction 4 (Kal^Sec14 [5]; [11]): 0.87 and 0.67 and 0.84
Molecule: L-α-phosphatidylinositol-4-phosphate [PI4P]
interaction of Kal^cSec14 with liposomes containing the lipid (Kal^cSec14): specifically interacts
